The source of these data is patent US20140248374A1, “COMPOSITIONS AND MULTI-STEP METHODS OF USING THE SAME FOR THE TREATMENT OF JELLYFISH STINGS” (UNIVERSITY OF HAWAII, priority 2011, published 2014).

The test system of one test is hemolytic toxins. As to conditions: in the presence of 10 mM D-lactulose; cited from earlier work.
Test [1] deals with Chironex fleckeri (the Australian box jellyfish) venom. The experiment in a line: Survival time following lethal doses of venom in mice. It counts as in vivo.
Test [2] has as its system human washed red blood cells (RBC, 2%) subjected to Alatina moseri venom. The test is described as follows: Venom-induced hemolysis of washed RBC, 96-well plate, plasma hemoglobin read spectrophotometrically. It counts as cell-based. The conditions noted are these: 1 hour at 37° C., FIG. 1.
Method: Using a 96-well plate, human washed red blood cells (RBC, 2%) were subjected to Alatina moseri venom (6.4 U/mL/%). And treated simultaneously with a dose of zinc gluconate administered to a final concentration of from 0 to 25 mM zinc gluconate in combination with a dose of copper gluconate administered to a final concentration of from 0 to 128 μM. At the end of the incubation period, the 96 well plate was centrifuged briefly at 4° C. to pellet red blood cells from plasma. Plasma hemoglobin levels were then determined spectrophotometrically.

With `OC[C@H]1O[C@@H](O[C@@H]2[C@@H](CO)O[C@](O)(CO)[C@H]2O)[C@H](O)[C@@H](O)[C@H]1O` [D-lactulose], in the test with hemolytic toxins, the hemolysis result was “dramatic absence of hemolysis”.
Take Zinc: in test [1], the survival time result is listed as “increase survival time”.
Turning to copper gluconate, the “inhibition of venom-induced hemolysis” value in test [2] (copper gluconate (0 to 128 μM) with between 0 mM and 12.5 mM zinc gluconate) is “substantially increased the baseline inhibition”. For the same compound, in test [2] (up to 128 μM copper gluconate added to 25 mM zinc gluconate), the “hemolysis after exposure to venom” value was “practically eliminated hemolysis”.
As to zinc gluconate, the “inhibition of venom-induced hemolysis” value in test [2] (zinc gluconate alone (baseline), 2% RBC, Alatina moseri venom 6.4 U/mL/%) is “baseline inhibition of venom-induced hemolysis”.
